In patent US4376076A, “Bis-esters of 1,1-alkanediols with 6-beta-hydroxymethylpenicillanic acid 1,1-dioxide” (priority 1982, dated 1983):

Key:
[1] = tested on: Pseudomonas aeruginosa 52A104 cell free beta-lactamase; assay: Inhibition of cell-free beta-lactamase (microiodometric), P. aeruginosa 52A104; type: biochemical; settings: for beta-lactamase inhibiting activity, in words: Pseudomonas aeruginosa; for % Inhibition Beta-Lactam Hydrolysis: Penicillin G 33 μM, pH 6.5, 37° C.
Description: The compounds of the present invention are thus evaluated in vitro by the ability of the compound (13) to inhibit the hydrolysis of certain beta-lactam antibiotics by beta-lactamase enzymes. The hydrolysis of ampicillin and penicillin G was determined by the microiodometric method of Novick [Biochem, J. 83, 236 (1962)]. Conditions for this assay are 0.5 M potassium phosphate, pH 6.5 and 37° C. Reactions were initiated by the addition of the cell-free beta-lactamase, except in the case of preincubation experiments in which the inhibitor and enzyme were incubated together in the assay mixture for 10 minutes before initiation of the reaction by addition of substrate. […]
(§1) Cell-free extracts were prepared by sonic treatment (using three 30-s bursts at 4° C. except for S. aureus, which was broken with a French press) of cultures grown in brain heart infusion on a rotary shaker incubator. For the S. aureus, P. aeruginose, and E. cloacae strains, de novo synthesis of beta-lactamase was induced by growing a log-phase culture in the presence of a sublethal concentration of penicillin G at 100, 1,000, and 300 microg./ml, respectively, for 2.5 hr.

[2] = tested on: Enterobacter cloacae 67B009 cell free beta-lactamase; assay: Inhibition of cell-free beta-lactamase (microiodometric), E. cloacae 67B009; type: biochemical; settings: for beta-lactamase inhibiting activity, in words: Enterobacter cloacae; for % Inhibition Beta-Lactam Hydrolysis: Penicillin G 33 μM
Description: The compounds of the present invention are thus evaluated in vitro by the ability of the compound (13) to inhibit the hydrolysis of certain beta-lactam antibiotics by beta-lactamase enzymes. The hydrolysis of ampicillin and penicillin G was determined by the microiodometric method of Novick [Biochem, J. 83, 236 (1962)]. Conditions for this assay are 0.5 M potassium phosphate, pH 6.5 and 37° C. Reactions were initiated by the addition of the cell-free beta-lactamase, except in the case of preincubation experiments in which the inhibitor and enzyme were incubated together in the assay mixture for 10 minutes before initiation of the reaction by addition of substrate. With the cell-free extracts of Staphylococcus aureus, Escherichia coli, Klebsiella pneumoniae and Pseudomonas aeruginosa, the substrate was ampicillin at 33 micro M (13 microg./ml).
as §1

[3] = tested on: Citrobacter diversus 70C031; assay: MIC on BHI agar, alone and 1:1 with ampicillin; type: cell-based; settings: inhibitor alone; 18 hrs. at 37° C.
Description: (§2) The procedure which is followed is the one recommended by the International Collaborative Study on Antibiotic Sensitivity Testing [Ericcson and Sherris, Acta. Pathologica et Microbiologia Scandinav, Supp. 217, Sections A and B: 64-68 (1971)], and employs brain heart infusion (BHI) agar and the inocula replicating device. Overnight growth tubes are diluted 100 fold for use as the standard inoculum (20,000-10,000 cells in approximately 0.002 ml are placed on the agar surface; 20 ml of BHI agar/dish). Twelve 2 fold dilutions of the test compound are employed, with initial concentration of the test drug being 200 mcg/ml. Single colonies are disregarded when reading tubes after 18 hrs. at 37° C. […] These MIC's are then compared with the MIC values obtained with a combination of the given antibiotic and the compound of the formula (6). […] The MIC values of combinations are measured using the method described by Barry and Sabath in "Manual of Clinical Microbiology", edited by Lenette, Spaulding and Truant, 2nd Edition, 1974, American Society for Microbiology.
(§3) For purposes of comparison data on the earlier beta-lactamase inhibitor, penicillanic acid 1,1-dioxide, are included.

[4] = tested on: Enterobacter cloacae 67B009; assay: MIC on BHI agar, alone and 1:1 with ampicillin; type: cell-based; settings: for MIC: inhibitor alone, 18 hrs. at 37° C.
Description: as §2, §3

Escherichia coli 51A266 = assay: MIC on BHI agar, alone and 1:1 with ampicillin; type: cell-based; settings: for Response: 1:1 with ampicillin (E); for MIC: inhibitor alone, 18 hrs. at 37° C.
Description: as §2, §3

[5] = tested on: Escherichia coli-R 51A129; assay: MIC on BHI agar, alone and 1:1 with ampicillin; type: cell-based; settings: for MIC: inhibitor alone, 18 hrs. at 37° C.
Description: as §2, §3

[6] = tested on: Klebsiella pneumoniae 53A079; assay: MIC on BHI agar, alone and 1:1 with ampicillin; type: cell-based; settings: for MIC: inhibitor alone, 18 hrs. at 37° C.
Description: as §2, §3

Proteus morgani 57G001 = assay: MIC on BHI agar, alone and 1:1 with ampicillin; type: cell-based; settings: inhibitor alone; 18 hrs. at 37° C.
Description: as §2, §3

[7] = tested on: Pseudomonas aeruginosa 52A104; assay: MIC on BHI agar, alone and 1:1 with ampicillin; type: cell-based; settings: for MIC: inhibitor alone, 18 hrs. at 37° C.
Description: as §2, §3

[8] = tested on: Serratia marcescens 63A095; assay: MIC on BHI agar, alone and 1:1 with ampicillin; type: cell-based; settings: inhibitor alone; 18 hrs. at 37° C.
Description: as §2, §3

[9] = tested on: Staphylococcus aureus 01A005; assay: MIC on BHI agar, alone and 1:1 with ampicillin; type: cell-based; settings: inhibitor alone; 18 hrs. at 37° C.
Description: as §2, §3

[10] = tested on: Staphylococcus aureus 01A400; assay: MIC on BHI agar, alone and 1:1 with ampicillin; type: cell-based; settings: inhibitor alone; 18 hrs. at 37° C.
Description: as §2, §3

[11] = tested on: a variety of microorganisms; assay: Enhancement of ampicillin effectiveness (MIC of combinations), overall statement; type: cell-based; settings: 1:1 with ampicillin; summary of Table II
Description: The procedure which is followed is the one recommended by the International Collaborative Study on Antibiotic Sensitivity Testing [Ericcson and Sherris, Acta. Pathologica et Microbiologia Scandinav, Supp. 217, Sections A and B: 64-68 (1971)], and employs brain heart infusion (BHI) agar and the inocula replicating device. Overnight growth tubes are diluted 100 fold for use as the standard inoculum (20,000-10,000 cells in approximately 0.002 ml are placed on the agar surface; 20 ml of BHI agar/dish). Twelve 2 fold dilutions of the test compound are employed, with initial concentration of the test drug being 200 mcg/ml. Single colonies are disregarded when reading tubes after 18 hrs. at 37° C. The susceptibility (MIC) of the test organism is accepted as the lowest concentration of compound capable of producing complete inhibition of growth as judged by the naked eye. The manner in which the said compounds of the formula (B) increase the effectiveness of a beta-lactam antibiotic can be appreciated by reference to experiments in which the MIC of a given antibiotic alone, and a compound of the formula (6) alone, are measured. […] The MIC values of combinations are measured using the method described by Barry and Sabath in "Manual of Clinical Microbiology", edited by Lenette, Spaulding and Truant, 2nd Edition, 1974, American Society for Microbiology. […]

[12] = inhibitor 1.0 μM, pH 6.5, 37° C.
[13] = inhibitor 16.5 μM, pH 6.5, 37° C.
[14] = inhibitor 66 μM, pH 6.5, 37° C.

For `CC1(C)[C@H](C(=O)O)N2C(=O)[C@@H](CO)[C@H]2S1(=O)=O` [A, 6-beta-(Hydroxymethyl)penicillanic acid 1,1-dioxide], the “beta-lactamase inhibiting activity, in words” value [1] was “Especially noteworthy”, the “% Inhibition Beta-Lactam Hydrolysis” value ([1]; inhibitor 1.0 μM) was 21.7% and the “% Inhibition Beta-Lactam Hydrolysis” value ([1]; inhibitor 16.5 μM) was 93.4%. The “% Inhibition Beta-Lactam Hydrolysis” value ([1]; inhibitor 66 μM) was 98.8%, the “beta-lactamase inhibiting activity, in words” value [2] was “Especially noteworthy” and the “% Inhibition Beta-Lactam Hydrolysis” value [2, 12] was 11.4%. The “% Inhibition Beta-Lactam Hydrolysis” value [2, 13] was 52.0% and the “% Inhibition Beta-Lactam Hydrolysis” value [2, 14] was 77.0%.

For `CC1(C)[C@H](C(=O)O)N2C(=O)C[C@H]2S1(=O)=O` [B, Penicillanic acid 1,1-dioxide], the “beta-lactamase inhibiting activity, in words” value [1] was “at best a low order of activity”, the “% Inhibition Beta-Lactam Hydrolysis” value ([1]; inhibitor 66 μM) was 0% and the “beta-lactamase inhibiting activity, in words” value [2] was “at best a low order of activity”. The “% Inhibition Beta-Lactam Hydrolysis” value [2, 12] was 0%, the “% Inhibition Beta-Lactam Hydrolysis” value [2, 13] was 0% and the “% Inhibition Beta-Lactam Hydrolysis” value [2, 14] was 0%. For the same compound, the “% Inhibition Beta-Lactam Hydrolysis” value ([2]; inhibitor 66 μM, preincubation of inhibitor and enzyme 10 minutes) was 26%, the MIC [3] was 200 µg/mL and the Response ([4]; 1:1 with ampicillin (E)) was “S”. For the same compound, the MIC [4] was 100 µg/mL, the Response (Escherichia coli 51A266) was “N” and the MIC (Escherichia coli 51A266) was 25 µg/mL. For the same compound, the MIC [5] was 200 µg/mL, the Response ([6]; 1:1 with ampicillin (E)) was “S” and the MIC [6] was 50 µg/mL. The MIC (Proteus morgani 57G001) was 200 µg/mL, the MIC [7] was greater than 200 µg/mL and the MIC [8] was 200 µg/mL. It also gave an MIC [9] of 100 µg/mL and an MIC [10] of 200 µg/mL.

`CC1(C)[C@H](C(=O)O)N2C(=O)[C@@H](CO)[C@H]2S1(=O)=O` [C, 6-beta-(Hydroxymethyl)penicillanic acid 1,1-Dioxides] was tested, and the MIC [3] was 200 µg/mL, the MIC [4] was 100 µg/mL and the Response (Escherichia coli 51A266) was “N”. For the same compound, the MIC (Escherichia coli 51A266) was 50 µg/mL, the Response ([5]; 1:1 with ampicillin (E)) was “S” and the MIC [5] was 50 µg/mL. The MIC [6] was 50 µg/mL, the MIC (Proteus morgani 57G001) was greater than 200 µg/mL and the Response ([7]; 1:1 with ampicillin (E)) was “S”. For the same compound, the MIC [7] was greater than 200 µg/mL, the MIC [8] was 200 µg/mL and the MIC [9] was greater than 200 µg/mL. It also gave an MIC [10] greater than 200 µg/mL.

`CC1(C)[C@H](C(=O)O)N2C(=O)[C@@H](CO)[C@H]2S1(=O)=O` [compound (6), 6-beta-(hydroxymethyl)penicillanic acid 1,1-dioxide] was tested, and the “enhanced spectrum and potency with ampicillin, in words” value [11] was “synergy or pronounced synergy”.
